Measurements: ChEMBL document CHEMBL6096640, “Discovery of novel thiosemicarbazone-acridine targeting butyrylcholinesterase with antioxidant, metal complexing and neuroprotector abilities as potential treatment of Alzheimer's disease: In vitro, in vivo, and in silico studies” (Eur J Med Chem, 2025)
Calls of active or inactive are those of the source. The rule behind the calls is not given here.

What was measured:
[1] = target: Cholinesterase (Equus caballus) (UniProt P81908); assay: Inhibition of equine serum BChE using butyrylthiocholine iodide as substrate at 10 uM preincubated for 10 mins followed by substrate addition by Ellman's method relative to control
Acetylcholinesterase [2] = target: T1, Acetylcholinesterase (Electrophorus electricus, UniProt O42275)
Description: Inhibition of electric eel AChE using acetylthiocholine iodide as substrate preincubated for 10 mins followed by substrate addition by Ellman's method

Cholinesterase [3] = target: T2, Cholinesterase (Equus caballus, UniProt P81908)
Description: Inhibition of equine serum BChE using butyrylthiocholine iodide as substrate preincubated for 10 mins followed by substrate addition by Ellman's method

[4] = Antioxidant activity of the compound assessed as DPPH radical scavenging activity at 100 uM incubated under light for 30 mins by spectrophotometric analysis relative to control; assay type: functional
[5] = Neurotoxicity against human SH-SY5Y cells assessed as reduction in cell viability at <= 50 uM; assay type: toxicity, cell-based
Mus musculus [6] = assay: Antialzheimer activity against scopolamine-induced amnesia Swiss mouse model assessed as number of crossings at 1 uM, icv by open field test; assay type: functional, organism-based
Mus musculus [7] = assay: Antialzheimer activity against scopolamine-induced amnesia Swiss mouse model assessed as sign of innate preference for objects at 1 uM, icv by novel object recognition test; assay type: functional, organism-based
Mus musculus [8] = assay: Antialzheimer activity against scopolamine-induced amnesia Swiss mouse model assessed as increase in exploration time at 1 uM, icv by novel object recognition test; assay type: functional, organism-based
[9] = Toxicity in Swiss mouse assessed as novel […] memory at 1 uM, icv by novel object recognition test; details: in vivo, icv_or_intrathecal
[10] = Neurotoxicity against human SH-SY5Y cells assessed as cell viability at 12.5 to 50 uM relative to control; assay type: toxicity, cell-based; details: dose 12.5-50 µM, read-out: Activity
SH-SY5Y = assay: Neuroprotective activity against H2O2-induced cell death in human SH-SY5Y cells assessed as cell viability at 3.125 to 12.5 uM preincubated for 24 hrs followed by H2O2 addition and measured after 2 hrs by MTT assay; assay type: functional, cell-based; details: dose 3.125-12.5 µM, time 26.0 hrs
in vitro = details: human
Description: Neurotoxicity against human SH-SY5Y cells assessed as cell viability at 50 uM relative to control

Cholinesterase [11] = target: T2, Cholinesterase; assay: Competitive inhibition of equine serum BChE using butyrylthiocholine iodide as substrate preincubated for 10 mins followed by substrate addition by Lineweaver-Burk plot analysis
Cholinesterase [12] = target: T2, Cholinesterase; assay: Non-competitive inhibition of equine serum BChE using butyrylthiocholine iodide as substrate preincubated for 10 mins followed by substrate addition by Lineweaver-Burk plot analysis
Acetylcholinesterase [13] = target: T1, Acetylcholinesterase; assay: Non-competitive inhibition of electric eel AChE using acetylthiocholine iodide as substrate preincubated for 10 mins followed by substrate addition by Lineweaver-Burk plot analysis
[14] = target: Acetylcholinesterase (Electrophorus electricus) (UniProt O42275); assay: Non-competitive inhibition of electric eel AChE using acetylthiocholine iodide as substrate assessed as decreased Vmax with constant Km by Ellman's method based Lineweaver-Burk plot analysis
[15] = target: Acetylcholinesterase (Electrophorus electricus) (UniProt O42275); assay: Inhibition of electric eel AChE using acetylthiocholine iodide as substrate at 10 uM preincubated for 10 mins followed by substrate addition by Ellman's method relative to control
[16] = Antioxidant activity of the compound assessed as DPPH radical scavenging activity at 10 uM incubated under light for 30 mins by spectrophotometric analysis relative to control; assay type: functional
Cholinesterase [17] = target: T2, Cholinesterase; assay: Competitive inhibition of equine serum BChE using butyrylthiocholine iodide as substrate at 3 uM preincubated for 10 mins followed by substrate addition by Lineweaver-Burk plot analysis
Acetylcholinesterase [18] = target: T1, Acetylcholinesterase; assay: Competitive inhibition of electric eel AChE using acetylthiocholine iodide as substrate at 11 uM preincubated for 10 mins followed by substrate addition by Lineweaver-Burk plot analysis
[19] = target: Acetylcholinesterase (Electrophorus electricus) (UniProt O42275); assay: Mixed-type inhibition of electric eel AchE using acetylthiocholine iodide as substrate assessed as decrease in Vmax with increase in Km preincubated for 10 mins followed by substrate addition by Lineweaver-Burk plot analysis
[20] = target: Cholinesterase (Equus caballus) (UniProt P81908); assay: Mixed-type inhibition of equine serum BChE using butyrylthiocholine iodide as substrate assessed as decrease in Vmax with increase in Km preincubated for 10 mins followed by substrate addition by Lineweaver-Burk plot analysis

T1 sequence (O42275 whole entry): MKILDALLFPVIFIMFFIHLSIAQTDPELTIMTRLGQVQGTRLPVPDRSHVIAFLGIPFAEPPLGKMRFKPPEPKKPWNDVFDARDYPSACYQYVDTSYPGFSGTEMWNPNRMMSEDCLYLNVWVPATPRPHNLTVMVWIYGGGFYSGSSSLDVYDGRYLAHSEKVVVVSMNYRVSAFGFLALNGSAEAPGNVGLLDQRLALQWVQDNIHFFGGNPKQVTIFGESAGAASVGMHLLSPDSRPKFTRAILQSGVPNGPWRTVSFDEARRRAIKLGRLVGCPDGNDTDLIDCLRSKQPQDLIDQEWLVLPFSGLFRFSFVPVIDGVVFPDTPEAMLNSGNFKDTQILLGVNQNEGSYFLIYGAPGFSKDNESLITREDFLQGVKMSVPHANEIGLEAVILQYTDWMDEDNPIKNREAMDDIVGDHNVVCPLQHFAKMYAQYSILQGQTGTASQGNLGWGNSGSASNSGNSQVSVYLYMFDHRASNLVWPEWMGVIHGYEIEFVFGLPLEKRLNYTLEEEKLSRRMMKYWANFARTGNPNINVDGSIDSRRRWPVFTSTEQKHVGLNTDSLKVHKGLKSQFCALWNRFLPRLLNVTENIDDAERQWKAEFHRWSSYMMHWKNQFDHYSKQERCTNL
Acetylcholinesterase (Electrophorus electricus), sequence (O42275 24-633 limits assumed): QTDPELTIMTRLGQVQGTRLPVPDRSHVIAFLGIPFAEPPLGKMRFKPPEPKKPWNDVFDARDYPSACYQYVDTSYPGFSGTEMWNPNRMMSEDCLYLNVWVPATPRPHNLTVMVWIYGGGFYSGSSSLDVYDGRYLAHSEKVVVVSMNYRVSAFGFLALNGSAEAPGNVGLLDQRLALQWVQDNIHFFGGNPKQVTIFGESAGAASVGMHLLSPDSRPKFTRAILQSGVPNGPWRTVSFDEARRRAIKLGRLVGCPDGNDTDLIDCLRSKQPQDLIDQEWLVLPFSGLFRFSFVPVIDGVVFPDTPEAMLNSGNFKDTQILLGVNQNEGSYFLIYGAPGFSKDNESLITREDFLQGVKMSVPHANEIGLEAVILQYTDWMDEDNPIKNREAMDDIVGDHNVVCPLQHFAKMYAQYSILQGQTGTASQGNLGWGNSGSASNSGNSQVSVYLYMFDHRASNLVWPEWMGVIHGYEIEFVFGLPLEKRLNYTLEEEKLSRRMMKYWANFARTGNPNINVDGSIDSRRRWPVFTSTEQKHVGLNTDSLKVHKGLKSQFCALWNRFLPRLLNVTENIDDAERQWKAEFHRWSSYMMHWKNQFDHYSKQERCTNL
T2 sequence (P81908 whole entry): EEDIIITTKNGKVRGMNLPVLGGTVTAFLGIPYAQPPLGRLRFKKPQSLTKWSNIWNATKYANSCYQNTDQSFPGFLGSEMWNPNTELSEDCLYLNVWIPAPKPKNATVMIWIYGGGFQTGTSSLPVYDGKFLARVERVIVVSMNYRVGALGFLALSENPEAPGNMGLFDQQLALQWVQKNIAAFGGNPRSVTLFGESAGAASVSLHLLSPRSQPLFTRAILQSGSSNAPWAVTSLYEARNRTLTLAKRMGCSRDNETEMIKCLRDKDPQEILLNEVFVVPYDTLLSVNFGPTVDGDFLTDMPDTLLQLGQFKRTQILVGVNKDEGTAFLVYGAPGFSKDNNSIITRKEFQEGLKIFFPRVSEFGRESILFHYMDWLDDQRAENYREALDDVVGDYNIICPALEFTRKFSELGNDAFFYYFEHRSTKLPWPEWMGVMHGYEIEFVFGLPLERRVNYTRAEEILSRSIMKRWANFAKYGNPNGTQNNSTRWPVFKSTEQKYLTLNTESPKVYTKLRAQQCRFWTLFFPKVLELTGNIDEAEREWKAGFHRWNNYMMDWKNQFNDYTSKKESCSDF
Cholinesterase (Equus caballus), sequence (P81908 whole entry): as above

Compound | inhibition [1] | IC50 (Acetylcholinesterase [2]) | IC50 (Cholinesterase [3]) | Activity [4] | also measured
Oc1cccc(/C=N/NC(=S)Nc2c3ccccc3nc3ccccc23)c1 | 83% | 22 µM | 2.28 µM |  | 
Cc1ccc(/C=N/NC(=S)Nc2c3ccccc3nc3ccccc23)c(O)c1 | 83% | 11.3 µM | 3.19 µM | 28.7% | 
S=C(N/N=C/c1ccc(Br)cc1)Nc1c2ccccc2nc2ccccc12 | 83% | 9.79 µM | 3.18 µM |  | 
S=C(N/N=C/c1ccc(Cl)cc1)Nc1c2ccccc2nc2ccccc12 | 83% | 10.1 µM | 2.19 µM |  | 
COc1ccc(/C=N/NC(=S)Nc2c3ccccc3nc3ccccc23)cc1 | 83% | 6.2 µM | 1.04 µM |  | Activity [5]: Non-toxic
S=C(N/N=C/c1c[nH]c2ccccc12)Nc1c2ccccc2nc2ccccc12 | 83% | 9.39 µM | 1.68 µM | 23.8% | 
Oc1ccccc1/C=N/NC(=S)Nc1c2ccccc2nc2ccccc12 | 83% | 10.8 µM | 3.13 µM | 15.8% | 
Cc1ccc(/C=N/NC(=S)Nc2c3ccccc3nc3ccccc23)cc1 | 83% | 2.78 µM | 1.54 µM |  | 
CC(C)(C)c1cc(/C=N/NC(=S)Nc2c3ccccc3nc3ccccc23)cc(C(C)(C)C)c1O | 83% | 10.5 µM | 1.15 µM | 69% | Activity (Mus musculus [6]): inactive; Activity (Mus musculus [7]): inactive; Activity (Mus musculus [8]): Active; Activity [9]: Toxic; viability at 50 µM [10]: ≤ 70%; Activity (SH-SY5Y): Active; viability at 50 µM (in vitro; SH-SY5Y cells): 90%
Cc1[nH]c2ccccc2c1/C=N/NC(=S)Nc1c2ccccc2nc2ccccc12 | 83% | 8.57 µM | 2.01 µM | 61% | 
S=C(N/N=C/c1ccccc1)Nc1c2ccccc2nc2ccccc12 | 83% | 2.47 µM | 0.71 µM | 37.9% | Ki (Cholinesterase [11]): 0.72 µM; Ki (Cholinesterase [12]): 1.68 µM; Ki (Acetylcholinesterase [13]): 1.35 µM; inhibition [14]: Active; inhibition [15]: 87%; Activity [5]: Non-toxic
O=[N+]([O-])c1ccc(/C=N/NC(=S)Nc2c3ccccc3nc3ccccc23)cc1 | 83% | 8.64 µM | 0.89 µM |  | Ki (Cholinesterase [11]): 0.2 µM; Ki (Cholinesterase [12]): 0.53 µM; Ki (Acetylcholinesterase [13]): 2.97 µM; inhibition [14]: Active; Activity [5]: Non-toxic
Oc1cccc(/C=N/NC(=S)Nc2c3c(nc4ccccc24)CCCC3)c1 |  |  | 3.03 µM | 12.1% | 
S=C(N/N=C/c1ccc(Cl)cc1Cl)Nc1c2ccccc2nc2ccccc12 | 83% | 6.11 µM | 1.06 µM |  | Activity [5]: Non-toxic
S=C(N/N=C/c1cccs1)Nc1c2ccccc2nc2ccccc12 | 83% | 34.6 µM | 2.45 µM | 41.5% | 
Fc1ccc(/C=N/NC(=S)Nc2c3ccccc3nc3ccccc23)cc1 | 83% | 12.8 µM | 1.35 µM | 44.3% | viability at 50 µM [10]: ≤ 70%
O=c1c(O)c(-c2ccc(O)c(O)c2)oc2cc(O)cc(O)c12 |  |  |  |  | Activity [16]: 51.7%
Oc1ccc(/C=N/NC(=S)Nc2c3ccccc3nc3ccccc23)cc1 | 83% | 11.5 µM | 1.73 µM |  | 
S=C(N/N=C/c1ccccc1)Nc1c2c(nc3ccccc13)CCCC2 |  | 13.6 µM | 5.38 µM | 32.2% | Ki (Cholinesterase [12]): 3.63 µM; Ki (Acetylcholinesterase [13]): 9.82 µM; Ki (Cholinesterase [17]): 1.41 µM; Ki (Acetylcholinesterase [18]): 1.66 µM; Activity [19]: Active; Activity [20]: Active
COc1ccc(/C=N/NC(=S)Nc2c3ccccc3nc3ccccc23)cc1O | 83% | 43.3 µM | 3.3 µM | 41.2% | 
S=C(N/N=C/c1cccnc1)Nc1c2ccccc2nc2ccccc12 | 83% |  |  | 15.5% | 
COc1cc2c(cc1OC)C(=O)C(CC1CCN(Cc3ccccc3)CC1)C2 (stereo not drawn) [DONEPEZIL] |  |  |  |  | viability at 50 µM (in vitro; sh-sy5y): 80%
CN(C)c1ccc(/C=N/NC(=S)Nc2c3ccccc3nc3ccccc23)cc1 | 83% | 7.6 µM | 1.77 µM |  | 
S=C(N/N=C/c1ccco1)Nc1c2ccccc2nc2ccccc12 | 83% | 28 µM | 4.4 µM | 43.9% | 
